{"source": "patent US20040115804A1", "about": "“Cell system for generating somatic cells” (priority 2002, published 2004)", "key": {"[1]": {"system": "haematopoietic stem cells of umbilical cord blood", "settings": "cultured in 0.001% of β-Mercaptoethanol; cited from earlier work"}, "[2]": {"system": "umbilical mesenchymal cells", "assay": "Transformation of umbilical mesenchymal cells into neurons with BME (NF and NeuN immunostaining)", "assay_type": "cell-based, human", "settings": "2 mM BME, 72 hours", "description": "Neurofilament (NF) is the major cytoskeleton in neurons, which is responsible for adjusting the size, appearance and diameter of dendrites of neurons. Only neurons at the late developmental stage or mature neurons express NF. Immunostaining for NF is utilized to recognize neurons at the late stage.\nNeuron-specific nuclear protein (NeuN) is a specific protein existing in the nucleus of neurons in the central nervous system of vertebrates. NeuN binds to DNA in vitro. It is known that NeuN appears earlier than NF during the development of neurons. Therefore, immunostaining for NeuN is utilized to identify neurons at the early stage of transformation.\nUmbilical mesenchymal cells obtained in Example 1 were cultured in 10% FBS-DMEM for 72 hours. Two mM BME was added to the culture and the cells continued to be cultured for 72 hours."}, "[3]": {"settings": "unsuitable for use in human bodies; cited from earlier work"}, "[4]": {"system": "BMSCs", "settings": "in vitro culture of BMSCs; cited from earlier work"}, "[5]": {"system": "bone marrow stromal cells", "settings": "bone marrow stromal cells treated with 5-azacytidine; cited from earlier work"}, "[6]": {"system": "umbilical mesenchymal cells", "assay": "Cardiac troponin I / F-actin immunocytochemistry after cardiac differentiation", "assay_type": "cell-based, human", "settings": "3 μM 5-azacytidine for 24 hours, then growing medium 1-3 weeks", "protocol": "Umbilical mesenchymal cells obtained in Example 1 were cultured in a cell growing medium of DMEM supplemented with about 4.5 g/L of glucose and about 10% FBS. After the cells have attached to the bottom of the cell culture plate, the cell growing medium was then replaced by a cell differentiating medium, which was prepared by supplementing the cell growing medium with 3 μM 5-azacytidine as a cell differentiating factor. Alternatively, the cell differentiating factor may be directly added to the culture.\nThe umbilical mesenchymal cells were cultured in the cell differentiating medium for 24 hours. The cell differentiating medium was then replaced by the cell growing medium to prevent intoxication of the cells caused by the long exposure to 5-azacytidine. The differentiated cells were further maintained in the cell growing medium for about 1-3 weeks to ensure the viability and optimal differentiation of the cells. The culture medium was replaced with fresh medium every three days. […]\nNext, secondary antibodies conjugated to fluorescence or any visible dyes readily detectable by an optical instrument such as a confocal laser scanning microscope, a fluorescence microscope, or an optical microscope, Rhodamine (TRITC)-conjugated AffiniPure Donkey Anti-Goat IgG (supplied by Jackson ImmunoResearch Lab) were added at a 1:100 dilution to bind the host species of the primary antibodies. […]"}}, "data": [{"smiles": "OCCS", "note": "[BME, β-mercaptoethanol]", "values": [{"measurement": "transformation of cord blood haematopoietic stem cells", "setting": "[1]", "value": "transformed into precursors of neural cells"}, {"measurement": "NF expression (immunostaining)", "setting": "[2]", "value": "expressed NF"}, {"measurement": "NeuN expression (immunostaining)", "setting": "[2]", "value": "expressed NeuN"}, {"measurement": "toxicity", "setting": "[3]", "value": "toxic for proteins"}, {"measurement": "cultured BMSCs induced to differentiate into neurons", "setting": "[4]", "value": "about 80%"}]}, {"smiles": "Nc1ncn([C@@H]2O[C@H](CO)[C@@H](O)[C@H]2O)c(=O)n1", "note": "[cell differentiating factor, 5-azacytidine]", "values": [{"measurement": "ultrastructure by electron microscopy", "setting": "[5]", "value": "cardiomyocyte-like ultrastructure"}, {"measurement": "F-actin expression, cell attachment pattern", "setting": "[6]", "value": "specific cell attachment pattern similar to that of the cardiomyocytes or cardiovascular cells"}, {"measurement": "C-troponin I expression", "setting": "[6]; compared to untreated cells", "value": "significant expression of C-troponin I"}]}]}
